Results published in patent US20170304236A1, “ANTIALLERGIC AGENT” (TOHOKU UNIVERSITY, priority 2015, published 2017).

Tests used:
TSLP [1] = assay: TSLP production in KCMH-1 cells (ELISA); assay type: cell-based, mouse; settings: 24 hours, culture supernatant
Procedure: KCMH-1 cells (J. Immunol. Methods 402: 9-14 (2013)) were suspended in 10% FBS-containing MEM-α at 1.0×10^5 cells/mL.
The culture supernatant was collected, and a TSLP amount was measured with Mouse TSLP DuoSet (trademark) ELISA (R&D Systems).

NF-κB [2] = assay: NF-κB luciferase reporter assay in KCMH-1 cells; assay type: cell-based, mouse; settings: 16D10 10 μM
Procedure: The transfection of Path Detect pNF-κB-Luc Plasmid (Stratagane) was performed with X-tremeGENE HP DNA Transfection Reagent in accordance with an accompanying protocol. Mouse keratinocyte KCMH-1 cells were seeded at 1×10^5 cells/ml into a 12-well plate (Falcon (trademark)), and cultured for 24 hours. The following day, first, to 50 μl of Opti-MEM at from 15° C. to 25° C., a 500 ng/μl reporter plasmid solution and a 100 ng/μl pGL4.74 [hRluc/TK] Vector solution were added at 1 μl each. Next, 1.5 μl of X-tremeGENE HP DNA Transfection Reagent was added, and the contents were lightly mixed by inversion and then left to stand still at room temperature for 15 minutes to form a transfection complex. Further, the culture supernatant was removed from the cells that had been cultured for 24 hours, and the cells were washed with PBS. After that, 950 μl of 10% FBS-containing MEMα was added to each well. […]
(§1) The measurement of luciferase activity was performed with Dual-Luciferase (trademark) Reporter Assay System in accordance with an accompanying protocol. […] Immediately after that, a Firefly luciferase luminescence integrated value for 10 seconds was calculated with AB-2200-R Luminescencer PSN (ATTO Corporation). After that, 50 μl of Stop&Glo reagent was added and the contents were lightly mixed, and then a Renilla luciferase luminescence integrated value for 10 seconds was measured.

TSLP [3] = assay: TSLP production by TNF-α stimulation in PAM212 cells (ELISA); assay type: cell-based, mouse; settings: TNF-α 30 ng/ml, 16D10 1, 3 and 10 μM, 48 hours
Procedure: After the culture, TSLP in the culture solution was measured by EILSA.

IKK, IκB, STAT6 = assay: Western blot of NF-κB-activating signal and STAT6 phosphorylation in HaCaT cells; assay type: cell-based, human; settings: 10 minutes; for TNF-α+IL-4 stimulation-induced increase in phosphorylation of IKK / TNF-α+IL-4 stimulation-induced reduction in inhibitory protein IκB of NF-κB: 16D10 100 μM
TSLP [4] = assay: LPS-induced air pouch inflammation in Balb/c mouse; assay type: in vivo; settings: 8 hours after administration into the air pouch
Procedure: (§2) 500 μl of air was subcutaneously injected into the back of a Balb/c mouse (6-week-old, male, SLC) to form an air pouch (day 1). Further, 500 μl each of air was injected into the air pouch on day 2, day 5, and day 7. 24 hours after that, 300 μl of a solution prepared by dissolving LPS at 10 ng/ml in 2% (w/v) CMC-Na physiological saline that had been subjected to high-pressure steam sterilization and further dissolving penicillin G potassium and streptomycin sulfate at 0.1 mg/ml each therein was injected into the air pouch to induce inflammation. […]
8 hours after the administration of the solution into the air pouch, the mouse was killed through blood removal by cutting the carotid artery under anesthesia. 300 μl of physiological saline was injected into the air pouch so as to be mixed with air pouch internal fluid, and then the air pouch internal fluid was collected and its weight was measured. An infiltrating leukocyte count was measured with a hemocytometer after the collected air pouch internal fluid had been diluted with physiological saline as appropriate. […] The supernatant was collected, and its TSLP concentration was measured with Mouse TSLP DuoSet (trademark) ELISA (R&D Systems) in accordance with an accompanying protocol. […]

NF-κB [5] = assay: NF-κB luciferase reporter assay in HaCaT cells; assay type: cell-based, human; settings: TNF-α 100 ng/ml, 2 hours, 16D10 10 or 100 μM, TPCA-1 10 μM
Procedure: The transfection of Path Detect pNF-κB-Luc Plasmid (Stratagane) was performed with X-tremeGENE HP DNA Transfection Reagent in accordance with an accompanying protocol. Human keratinocyte HaCaT cells were seeded at 0.65×10^5 cells/ml into a 12-well plate (Falcon (trademark)), and cultured for 24 hours. […], first, to 50 μl of Opti-MEM at from 15° C. to 25° C., a 500 ng/μl reporter plasmid solution and a 100 ng/μl pGL4.74[hRluc/TK] Vector solution were added at 1 μl each. Next, 1. 5 μl of X-tremeGENE HP DNA Transfection Reagent was added, and the contents were lightly mixed by inversion and then left to standstill at room temperature for 15 minutes to form a transfection complex. Further, the culture supernatant was removed from the cells that had been cultured for 24 hours, and the cells were washed with PBS. After that, 950 μl of 10% FBS-containing MEMα was added to each well. […]
as §1

various kinases = assay: Off-chip Mobility Shift Assay kinase panel (Carna Biosciences); assay type: biochemical; settings: 16D10 at 10 μM
Procedure: Carna Biosciences, Inc. was entrusted to measure the effect of the test compound 16D10 at 10 μM on the activity of each kinase by Off-chip Mobility Shift Assay (MSA) described on the website of Carna Biosciences, Inc. (http://www.carnabio.com/output/pdf/ProfilingProfilingBook_ja. pdf). Specifically, the measurement was performed by the following method.
The test compound is dissolved in and diluted with DMSO to a 100-fold concentration. Then, the solution is diluted 25-fold with assay buffer to prepare a test compound solution. A control is similarly prepared.
(1) […] of a 4-fold compound solution, 5 mL of a 4-fold Substrate/ATP/Metal solution, and […] of a 2-fold kinase solution are prepared with assay buffer (20 mM HEPES, 0.01% Triton X-100, 2 mM DTT, pH 7.5), and are mixed and incubated in a polypropylene 384-well plate at room temperature for from 1 hour or 5 hours* (*the reaction time is set depending on the kinase); (2) […] of termination buffer (QuickScout Screening Assist MSA; Carna Biosciences) is added to each well; (3) the reaction mixture is applied to a LabChip™ system (PerkinElmer), and the peaks of a product and a substrate peptide are separated and quantified; and (4) a kinase reaction is evaluated on the basis of a product ratio (P/(P+S)) calculated from the peak heights of the product (P) and the substrate (S) peptide.

TSLP [6] = assay: OVA air pouch model in ICR mouse; assay type: in vivo
Procedure: as §2, with “an ICR” for “a Balb/c”, “ovalbumin (OVA)” for “LPS”, “100 μg/0.3 ml” for “10 ng/ml”
8 hours after the administration of the solution into the air pouch, the mouse was killed through blood removal by cutting the carotid artery under anesthesia. 300 μl of physiological saline was injected into the air pouch so as to be mixed with air pouch internal fluid, and then the air pouch internal fluid was collected and its weight was measured. Its TSLP concentration was measured with Mouse TSLP DuoSet (trademark) ELISA (R&D Systems) in accordance with an accompanying protocol. 14 days after the administration of the solution into the air pouch, blood was collected, and the amount of OVA-specific IgE in serum was measured with an ELISA kit (Anti-ovalbumin IgE (mouse) EIA kit (Cayman 500840)).

TSLP mRNA = TSLP mRNA expression in stimulated HaCaT cells (real-time PCR); assay type: cell-based, human; settings: 16D10 10 and 100 μM, 4 hours
Text: […] […] Forward: [NT], Reverse: [NT] rRNA forward: [NT], Reverse: [NT].

Row | SMILES | TSLP production-suppressing ability (TSLP [1]) | transcriptional activity of NF-κB (NF-κB [2]; KCMH-1 cells, 24 hours) | TSLP production (NF-κB [2]; KCMH-1 mouse keratinocyte cell line) | TSLP production by TNF-α (TSLP [3]) | TNF-α+IL-4 stimulation-induced increase in phosphorylation of IKK (IKK, IκB, STAT6) | TNF-α+IL-4 stimulation-induced reduction in inhibitory protein IκB of NF-κB (IKK, IκB, STAT6) | increase in phosphorylation of STAT6 by stimulation (IKK, IκB, STAT6; TNF-α + IL-4, 16D10 100 μM) | TSLP concentration in air pouch internal fluid (TSLP [4]) | infiltrating leukocyte count (TSLP [4]) | transcriptional activity of NF-κB (NF-κB [5]) | activity of each kinase (various kinases) | OVA-specific IgE in serum (TSLP [6]; 14 days after administration into the air pouch) | TSLP production by OVA (TSLP [6]; air pouch internal fluid, 8 hours after administration) | expression of TSLP mRNA (TSLP mRNA; Poly(I:C) 50 μg/ml stimulation) | expression of TSLP mRNA (TSLP mRNA; TNF-α 100 ng/ml stimulation)
1 | COc1ccc(OC)c(/C=C/C(=O)c2cc(OC)c(OC)cc2CCNC(C)=O)c1 [16D10, (E)-N-[2-[2-[3-(2,5-dimethoxyphenyl)-1-oxo-2-propen-1-yl]-4,5-dimethoxyphenyl]ethyl]acetamide] | extremely high TSLP production-suppressing ability | without suppressing the transcriptional activity of NF-κB | suppressed TSLP production | suppressed TSLP production by TNF-α in a concentration-dependent manner | not suppressed | not suppressed | did not suppress | significantly suppressed TSLP production | did not reduce infiltrating leucocytes | did not suppress the activity | did not suppress the activity of each kinase analyzed | suppressed the production of OVA-specific IgE | significantly suppressed TSLP production by OVA | suppressed | suppressed
2 | NC(=O)Nc1sc(-c2ccc(F)cc2)cc1C(N)=O [TPCA-1, [5-(p-Fluorophennyl)-2-ureido]thiophene-3-carboxamide, reference compound] | – | – | – | – | suppressed | suppressed | – | – | – | suppressed the transcriptional activity of NF-κB | – | – | – | – | –
